The text below walks through data of article PMC12648864 (Biology of Sex Differences, 2025).

Read-outs that look alike come from different tables or passages of the source.

As usually defined, the AUC is the area under the concentration-time curve, a measure of exposure. By AUC(0-t) is commonly meant exposure summed from dosing to a finite time, without extrapolation to infinity. A lower AUC(0-t) goes with less exposure. By AUC(0-inf) is commonly meant total exposure, with the tail of the curve extrapolated. Read a low AUC(0-inf) as low exposure. One may read the Cmax as the highest concentration seen after dosing. Usually Tmax stands for the time at which the peak concentration occurs. A word on the half-life: it is the time needed for the level to fall by half in the phase considered.

The conditions of series [1]: cited from earlier work.
On the set-up of series [2]: method as in PMID 27169283. The conditions noted are these: ovariectomized rat, plasma; cited from earlier work.
A further series in a line: in vivo. The following applies: for AUC(0-t) / AUC(0-inf) / Cmax / Tmax / half-life: Sprague-Dawley, rat, plasma, po, 0.59 mg/kg. An excerpt: In detail, 6 intact 8-week-old male and female Sprague-Dawley (SD) rats, as well as 6 intact 5-week-old male and female SD rats were purchased from Changyang Xishan Breeding Farm (Beijing Changyang Xishan Breeding Farm, China). All rats were provided standard chow and freely-available drinking water. They were acclimatized for 1 week and fasted overnight before drug administration. The rats were divided into intact and GDX groups, with 6 males and 6 females in each group. In GDX group, testes were surgically removed from male rat at 5 weeks of age, while ovaries were excised from female rat. Following surgery, GDX rats were maintained for an additional […] before testing. All animals, both intact and GDX, were tested at 8 weeks of age.
Blood was collected from orbital vein into a centrifuge tube containing sodium heparin at following time points: 5, 10, 15, 30, and 45 min, as well as 1, 1.5, 2, 4, 6, 8, 12, 24, and 48 h. The collected blood was shaken well and centrifuged at 1500 g for 10 min to separate plasma, then stored at −20 ℃ until use. All experimental procedures were reviewed and approved by the Ethical Committee for Use of Laboratory Animals of the Shanxi Medical University (SYDL2025013).
In detail, 180 µL of plasma was pipetted into a tube, followed by the addition of 20 µL of internal standard (100 ng/mL ephedrine) and the mixture was vortexed for 5 s. Next, 1 mL of acetonitrile precipitation protein was added to this mixture, which was vortexed again for 20 s. Finally, the mixture was centrifuged at 13,000 g for 10 min and the supernatant was transferred to a clean tube. This supernatant was evaporated to dryness under a stream of nitrogen at 35 ℃, then reconstituted in 200 µL of a compound solution consisting of methanol and […] ammonium formate (containing 0.1% formic acid) in a 40:60 (v/v) ratio. The reconstituted supernatant was stored at −80 ℃ until use. Subsequently, the supernatant was passed through a 0.22 μm organic filter before analysis using 1260–6470 HPLC-tandem mass spectrometry (MS/MS).
The mobile phase consisted of A: water + […] ammonium formate + 0.1% formic acid, and B: methanol. The gradient elution program was as follows: 0–1 min, 20% B; 1–6.5 min, 20%−80% B; 6.5–7.5 min, 80% B; 7.5–8.5 min, 80%−20% B; 8.5–12 min, 20% B.
MS conditions: Detection was carried out using an Agilent Jet Stream electrospray ionization source in positive ion mode, operating in multiple reaction monitoring mode. The ion source temperature was 300 ℃, and the nebulizer temperature was 305 ℃. The gas flow rate was maintained at 11.0 L/min, with the capillary voltage of 4000 V.

On the set-up of series [3]: method as in PMID 38276513. The conditions noted are these: following gonadectomy; cited from earlier work.
Setting [4] is: female, GDX female rats, oral 0.59 mg/kg.
Where [5] appears, read: female, intact female rats, oral 0.59 mg/kg.
The mark [6] stands for this setting: male, GDX male rats, oral 0.59 mg/kg.
Setting [7] is: male, intact male rats, oral 0.59 mg/kg.

As for `COc1c([C@H]2[C@H](C(=O)Nc3ccnc(C(N)=O)c3)O[C@@](C)(C(F)(F)F)[C@H]2C)ccc(F)c1F` [VX-548], in series [1] (female rats), the AUC is on record as 1505.8 ± 47.3 ng·h/mL and the clearance rate is on record as 12.5 ± 0.8 mL/min/kg. In addition, in series [1] (male rats), the AUC is 253.8 ± 6.3 ng·h/mL and the clearance rate is listed as 65.1 ± 1.7 mL/min/kg.

Take `C[C@H]1O[C@@H](O[C@H]2[C@@H](O)C[C@H](O[C@H]3[C@@H](O)C[C@H](O[C@H]4CC[C@@]5(C)[C@H](CC[C@@H]6[C@@H]5C[C@@H](O)[C@]5(C)[C@@H](C7=CC(=O)OC7)CC[C@]65O)C4)O[C@@H]3C)O[C@@H]2C)C[C@H](O)[C@@H]1O` [digoxin]: the “peak digoxin concentration after ovariectomy” value in series [2] was “significantly lower”.

Turning to `O=C1C[C@@H]2OCC=C3CN4CC[C@]56c7ccccc7N1[C@H]5[C@H]2[C@H]3C[C@H]46` [strychnine, Strychnine nitrate], the “delay of time to peak concentration, female later than male rats” value in the series “in vivo” (GDX group, oral 0.59 mg/kg) came to 0.6 h; in “in vivo” (intact group, oral 0.59 mg/kg), 0.05 h. For the same compound, the “peak of plasma concentration in female rats relative to male rats” value in the series “in vivo” (GDX group, oral 0.59 mg/kg) was found to be 3.70 times; in “in vivo” (intact group, oral 0.59 mg/kg), 3.49 times. The AUC(0-t) stood at 489 ± 40.6 ng·h/mL in “in vivo” (setting [4]), 409 ± 58.4 ng·h/mL in the series “in vivo” (setting [5]), 152 ± 10.4 ng·h/mL in the series “in vivo” (setting [6]) and 96.8 ± 24.9 ng·h/mL in the series “in vivo” (setting [7]). Besides, the AUC(0-inf) turned out to be 501 ± 43.5 ng·h/mL in the series “in vivo” (setting [4]), 403 ± 57.7 ng·h/mL in the series “in vivo” (setting [5]), 153 ± 10.3 ng·h/mL in the series “in vivo” (setting [6]) and 97 ± 24.7 ng·h/mL in the series “in vivo” (setting [7]). The Cmax in “in vivo” (setting [4]) came to 48.1 ± 4.06 ng/mL; in the series “in vivo” (setting [5]), 116 ± 2.7 ng/mL; in the series “in vivo” (setting [6]), 13 ± 0.6 ng/mL; in the series “in vivo” (setting [7]), 33.4 ± 2.01 ng/mL. For the same compound, the time to peak (Tmax) worked out at 0.63 ± 0.14 h in the series “in vivo” (female), 1.6 ± 0.22 h in “in vivo” (setting [4]), 0.58 ± 0.13 h in the series “in vivo” (male) and 1 h in “in vivo” (setting [6]). Moreover, the half-life in the series “in vivo” (female, t1/2, GDX female rats, oral 0.59 mg/kg) was 9.06 ± 1.82 h; in “in vivo” (female, t1/2, intact female rats, oral 0.59 mg/kg), 5.7 ± 2.6 h; in “in vivo” (male, t1/2, GDX male rats, oral 0.59 mg/kg), 7.68 ± 0.94 h; in the series “in vivo” (male, t1/2, intact male rats, oral 0.59 mg/kg), 3.84 ± 1.48 h.

For `NCCCC(=O)O` [γ-aminobutyric acid], in series [3], the “area under the curve, testosterone-treated male rats versus female rats with similar treatment” value is “higher” and the “renal clearance, testosterone-treated male rats versus female rats with similar treatment” value is “significantly lower”.
